This is an account of results in BindingDB's records for doi:10.1016/0006-8993(88)90805-0 (Veterans Administration Medical Center, 1988).

Each structure is given as a SMILES string.

The assay concerns the target Sodium-dependent serotonin transporter (Rattus norvegicus, UniProt P31652).

Chain of Sodium-dependent serotonin transporter (P31652 whole entry): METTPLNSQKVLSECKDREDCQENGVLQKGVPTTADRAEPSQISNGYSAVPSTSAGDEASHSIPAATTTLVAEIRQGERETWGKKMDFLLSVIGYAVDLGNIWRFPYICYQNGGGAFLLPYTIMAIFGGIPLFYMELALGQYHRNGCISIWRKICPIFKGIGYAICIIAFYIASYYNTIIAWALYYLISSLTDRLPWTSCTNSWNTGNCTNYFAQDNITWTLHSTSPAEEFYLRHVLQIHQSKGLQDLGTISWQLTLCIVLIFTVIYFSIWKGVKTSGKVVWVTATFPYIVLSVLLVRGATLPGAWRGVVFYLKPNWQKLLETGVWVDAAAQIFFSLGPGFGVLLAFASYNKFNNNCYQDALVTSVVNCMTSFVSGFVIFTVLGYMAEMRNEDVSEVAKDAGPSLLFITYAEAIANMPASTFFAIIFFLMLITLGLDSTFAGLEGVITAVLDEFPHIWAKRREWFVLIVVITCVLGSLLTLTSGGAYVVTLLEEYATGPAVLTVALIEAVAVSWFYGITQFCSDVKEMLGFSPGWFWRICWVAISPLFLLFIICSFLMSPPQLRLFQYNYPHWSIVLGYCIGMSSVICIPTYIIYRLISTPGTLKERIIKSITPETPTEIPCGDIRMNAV

`CC[C@@H](CO)NC(=O)[C@@H]1C=C2c3cccc4c3c(cn4C)C[C@H]2N(C)C1`: the Ki (as a rule, a dissociation constant, usually derived from enzyme kinetics or from competition with a known ligand) is 3.7 µM.
